Patent publication US10899738B2 (THE REGENTS OF THE UNIVERSITY OF MICHIGAN, priority 2016, dated 2021)
Like-named read-outs stand apart in the source and are kept apart here.

Experiments:
menin protein = menin protein (Homo sapiens (Human), UniProt O00255); test: biochemical; type: binding; settings: FP competitive binding; menin protein 4 nM, FAM-MM2 probe 2 nM; read-out: Menin Binding Affinity IC50
Method in brief: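 Test compounds displaced FAM-MM2 (2 nM) from 4 nM menin after 30 min equilibration at room temperature in PBS buffer containing bovine γ-globulin, 4% DMSO and Triton X-100. Binding was followed by fluorescence polarization. Competition curves were fitted by nonlinear regression to give IC50 and Ki.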

[1] = Cell growth inhibition, CellTiter-Glo Luminescent Cell Viability Assay; type: cell-based
Method in brief: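 Cells seeded at 2,000/well with serially diluted compound and cultured 4 days at 37 °C, 5% CO2. Viability read by CellTiter-Glo luminescence; IC50 derived from dose-response.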

[2] = MOLM-13, 96 h, read-out: Cell Growth Inhibition IC50 (μM) MOLM13, MOLM13 cells, 4 days, CellTiter-Glo
[3] = MV4-11, 96 h, read-out: Cell Growth Inhibition IC50 (μM) MV4, 11, MV4, 11 cells, 4 days, CellTiter-Glo
[4] = read-out: Cell Growth Inhibition IC50 (μM) MOLM13, MOLM13 cells, 4 days, CellTiter-Glo
[5] = read-out: Cell Growth Inhibition IC50 (μM) MV4, 11, MV4, 11 cells, 4 days, CellTiter-Glo

Chain of menin protein (O00255 whole entry): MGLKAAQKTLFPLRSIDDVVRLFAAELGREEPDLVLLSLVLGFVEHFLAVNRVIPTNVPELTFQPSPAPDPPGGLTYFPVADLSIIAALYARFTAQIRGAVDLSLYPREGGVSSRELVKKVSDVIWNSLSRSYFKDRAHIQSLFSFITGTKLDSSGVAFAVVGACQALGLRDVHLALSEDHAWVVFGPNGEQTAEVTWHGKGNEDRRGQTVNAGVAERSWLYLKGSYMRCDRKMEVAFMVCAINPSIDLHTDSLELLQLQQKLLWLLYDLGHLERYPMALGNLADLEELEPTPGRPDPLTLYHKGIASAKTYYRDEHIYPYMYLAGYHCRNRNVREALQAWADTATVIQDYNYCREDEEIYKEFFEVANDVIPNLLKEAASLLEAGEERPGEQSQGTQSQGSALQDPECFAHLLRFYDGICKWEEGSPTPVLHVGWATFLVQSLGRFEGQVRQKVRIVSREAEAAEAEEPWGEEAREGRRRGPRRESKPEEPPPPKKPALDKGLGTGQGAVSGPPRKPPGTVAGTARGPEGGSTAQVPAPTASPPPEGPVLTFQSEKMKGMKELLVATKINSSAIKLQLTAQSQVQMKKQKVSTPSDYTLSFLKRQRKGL

Structure (SMILES) | IC50 (menin protein) [µM] | IC50 [1, 2] [µM] | IC50 [1, 3] [µM] | IC50 [1, 4] [µM] | IC50 [1, 5] [µM]
CNC(=O)O[C@H]1CCC[C@@H]1C(Cn1cccc1)(c1ccccc1)C1CCN(CC2CN(c3ccc(S(=O)(=O)c4ccccc4)cc3)C2)CC1 (mixture of isomers) [compound 359, rac-(1S,2R)-2-(1-phenyl-1-(1-((1-(4-(phenylsulfonyl)phenyl)azetidin-3-yl)methyl)piperidin-4-yl)-2-(1H-pyrrol-1-yl)ethyl)cyclopentyl methylcarbamate] | 0.012 | 1.46 | 0.43 |  | 
CNC(=O)O[C@H]1CCC[C@@H]1C(Cn1ccnc1)(c1ccccc1)C1CCN(CC2CN(c3ccc(S(=O)(=O)c4ccc(C(=O)O)cc4)cc3)C2)CC1 (mixture of isomers) [compound 362, rac-4-((4-(3-((4-(2-(1H-imidazol-1-yl)-1-((1R,2S)-2-((methylcarbamoyl)oxy)cyclopentyl)-1-phenylethyl)piperidin-1-yl)methyl)azetidin-1-yl)phenyl)sulfonyl)benzoic acid] | 0.008 |  |  | > 10 | 4.79
CNC(=O)O[C@H]1CCC[C@@H]1C(Cn1ccnc1)(c1ccccc1)C1CCN(CC2CN(c3ccc(S(=O)(=O)c4ccc(C(=O)O)cc4)cc3)C2)CC1 (mixture of isomers) [compound 363, rac-4-((4-(3-((4-(2-(1H-imidazol-1-yl)-1-((1R,2S)-2-((methylcarbamoyl)oxy)cyclopentyl)-1-phenylethyl)piperidin-1-yl)methyl)azetidin-1-yl)phenyl)sulfonyl)benzoic acid] | 0.027 |  |  | 2.64 | 0.56
CNC(=O)O[C@H]1CCC[C@@H]1C(C#N)(c1ccccc1)C1CCN(CC2CN(c3ccc(C(F)(F)F)cc3)C2)CC1 (mixture of isomers) [compound 367, rac-(1S,2R)-2-(cyano(phenyl)(1-((1-(4-(trifluoromethyl)phenyl)azetidin-3-yl)methyl)piperidin-4-yl)methyl)cyclopentyl methylcarbamate] | 0.03 | 2.96 | 1.66 |  | 
CNC(=O)O[C@H]1CCC[C@@H]1C(C#N)(c1ccccc1)C1CCN(CC2(F)CN(c3ccc(S(=O)(=O)c4cnn(C)c4)cc3)C2)CC1 (mixture of isomers) [compound 369, rac-(1S,2R)-2-(cyano(1-((3-fluoro-1-(4-((1-methyl-1H-pyrazol-4-yl)sulfonyl)phenyl)azetidin-3-yl)methyl)piperidin-4-yl)(phenyl)methyl)cyclopentyl methylcarbamate] | 0.068 | 7.71 | 3.5 |  | 
CNC(=O)O[C@H]1CCC[C@@H]1C(C#N)(c1ccccc1)C1CCN(CC2(C)CN(c3ccc(S(=O)(=O)c4cnn(C)c4)cc3)C2)CC1 (mixture of isomers) [compound 372, rac-(1S,2R)-2-(cyano(1-((3-methyl-1-(4-((1-methyl-1H-pyrazol-4-yl)sulfonyl)phenyl)azetidin-3-yl)methyl)piperidin-4-yl)(phenyl)methyl)cyclopentyl methylcarbamate] | 0.048 | 5.01 | 2.03 |  | 
CCN1Cc2ccccc2C(C2CCN(CC3CN(c4ccc(S(=O)(=O)c5ccn(C)c5)cc4)C3)CC2)([C@H]2CCC[C@@H]2NC(=O)NC)C1 (mixture of isomers) [compound 375, rac-1-((1S,2R)-2-(2-ethyl-4-(1-((1-(4-((1-methyl-1H-pyrrol-3-yl)sulfonyl)phenyl)azetidin-3-yl)methyl)piperidin-4-yl)-1,2,3,4-tetrahydroisoquinolin-4-yl)cyclopentyl)-3-methylurea] | 0.011 | 1.73 | 0.39 |  | 
CN(C)C(=O)N[C@H]1CCC[C@@H]1C(Cn1ccnc1)(c1ccccc1)C1CCN(CC2CN(c3ccc(S(=O)(=O)c4cnn(C)c4)cc3)C2)CC1 (mixture of isomers) [compound 376, rac-3-((1S,2R)-2-(2-(1H-imidazol-1-yl)-1-(1-((1-(4-((1-methyl-1H-pyrazol-4-yl)sulfonyl)phenyl)azetidin-3-yl)methyl)piperidin-4-yl)-1-phenylethyl)cyclopentyl)-1,1-dimethylurea] | 0.006 | > 10 | 10.5 ± 2.08 |  | 
CC(=O)N[C@H]1CCC[C@@H]1C(Cn1ccnc1)(c1ccccc1)C1CCN(CC2CN(c3ccc(S(=O)(=O)c4ccccc4)cc3)C2)CC1 (mixture of isomers) [compound 381, rac-N-((1S,2R)-2-(2-(1H-imidazol-1-yl)-1-phenyl-1-(1-((1-(4-(phenylsulfonyl)phenyl)azetidin-3-yl)methyl)piperidin-4-yl)ethyl)cyclopentyl) acetamide] | 0.013 | 0.67 | 0.14 |  | 
CNC(=O)O[C@H]1CCC[C@@H]1C(Cn1ccnc1)(c1cccc(F)c1)C1CCN(CC2CN(c3ccc(C#N)cc3)C2)CC1 (mixture of isomers) [compound 390, rac-(1S,2R)-2-(1-(1-((1-(4-cyanophenyl)azetidin-3-yl)methyl)piperidin-4-yl)-1-(3-fluorophenyl)-2-(1H-imidazol-1-yl)ethyl)cyclopentyl methylcarbamate] | 0.005 | 0.082 | 0.021 |  | 
COC(=O)N[C@H]1CCC[C@@H]1C(Cn1ccnc1)(c1ccccc1)C1CCN(CC2CN(c3ccc(S(=O)(=O)c4cnn(C)c4)cc3)C2)CC1 (mixture of isomers) [compound 392, methyl rac-((1S,2R)-2-(2-(1H-imidazol-1-yl)-1-(1-((1-(4-((1-methyl-1H-pyrazol-4-yl)sulfonyl)phenyl)azetidin-3-yl)methyl)piperidin-4-yl)-1-phenylethyl)cyclopentyl) carbamate] | 0.007 | 0.76 ± 0.32 | 0.084 ± 0.032 |  | 
COC(=O)N[C@H]1CCC[C@@H]1C(C#N)(c1ccccc1)C1CCN(CC2CN(c3ccc(S(=O)(=O)c4ccc(F)cc4)cc3)C2)CC1 (mixture of isomers) [compound 394, methyl rac((1S,2R)-2-(cyano(1-((1-(4-((4-fluorophenyl)sulfonyl)phenyl)azetidin-3-yl)methyl)piperidin-4-yl)(phenyl)methyl)cyclopentyl) carbamate] | 0.015 | 1.94 | 0.43 |  | 
COC(=O)N[C@H]1CCC[C@@H]1C(C#N)(c1ccccc1)C1CCN(CC2CN(c3ccc(S(=O)(=O)C4CC4)cc3Cl)C2)CC1 (mixture of isomers) [compound 395, methyl rac-((1S,2R)-2-((1-((1-(2-chloro-4-(cyclopropylsulfonyl)phenyl)azetidin-3-yl)methyl)piperidin-4-yl)(cyano)(phenyl)methyl)cyclopentyl)carbamate] | 0.016 | 2.29 | 0.65 |  | 
COC(=O)N[C@H]1CCC[C@@H]1C(C#N)(c1ccccc1)C1CCN(CC2CN(c3ccc(S(=O)(=O)C4CC5CCC4C5)cc3)C2)CC1 (mixture of isomers) [compound 396, methyl rac-((1S,2R)-2-((1-((1-(4-(bicyclo[2.2.1]heptan-2-ylsulfonyl)phenyl)azetidin-3-yl)methyl)piperidin-4-yl)(cyano)(phenyl)methyl)cyclopentyl)carbamate] | 0.012 | 1.46 | 0.46 |  | 
COC(=O)N[C@H]1CCC[C@@H]1C(C#N)(c1ccccc1)C1CCN(CC2(F)CN(c3ccc(S(=O)(=O)c4cnn(C)c4)cc3)C2)CC1 (mixture of isomers) [compound 397, methyl rac-((1S,2R)-2-(cyano(1-((3-fluoro-1-(4-((1-methyl-1H-pyrazol-4-yl)sulfonyl)phenyl)azetidin-3-yl)methyl)piperidin-4-yl)(phenyl)methyl)cyclopentyl) carbamate] | 0.186 | > 10 | 4.54 |  | 
COC(=O)N[C@H]1CCC[C@@H]1C(C#N)(c1ccccc1)C1CCN(CC2(C)CN(c3ccc(S(=O)(=O)c4cnn(C)c4)cc3)C2)CC1 (mixture of isomers) [compound 398, methyl rac-((1S,2R)-2-(cyano(1-((3-methyl-1-(4-((1-methyl-1H-pyrazol-4-yl)sulfonyl)phenyl)azetidin-3-yl)methyl)piperidin-4-yl)(phenyl)methyl)cyclopentyl) carbamate] | 0.167 | > 10 | 4.57 |  | 
COC(=O)N[C@H]1CCC[C@@H]1C(C#N)(c1ccccc1)C1CCN(CC2CN(c3ccc(S(=O)(=O)c4ccc(C(N)=O)cc4)cc3)C2)CC1 (mixture of isomers) [compound 399, methyl rac-((1S,2R)-2-((1-((1-(4-((4-carbamoylphenyl)sulfonyl)phenyl)azetidin-3-yl)methyl)piperidin-4-yl)(cyano)(phenyl)methyl)cyclopentyl)carbamate] | 0.007 | 1.63 | 0.11 |  | 
COC(=O)N[C@H]1CCC[C@@H]1C(C#N)(c1ccccc1)C1CCN(CCC#Cc2ccc(C#N)cc2)CC1 (mixture of isomers) [compound 404, methyl rac-((1S,2R)-2-(cyano(1-(4-(4-cyanophenyl)but-3-yn-1-yl)piperidin-4-yl)(phenyl)methyl)cyclopentyl) carbamate] | 0.212 | > 10 | > 10 |  | 
CNC(=O)O[C@H]1CCC[C@@H]1C(Cn1ccnc1C)(c1ccccc1)C1CCN(CC2CN(c3ccc(C#N)cc3)C2)CC1 (mixture of isomers) [compound 406, rac-(1S,2R)-2-(1-(1-((1-(4-cyanophenyl)azetidin-3-yl)methyl)piperidin-4-yl)-2-(2-methyl-1H-imidazol-1-yl)-1-phenylethyl)cyclopentyl methylcarbamate] | 0.003 | 0.009 ± 0.0004 | 0.004 ± 0.002 |  | 
